Experimental data: patent US20240287080A1 (IDEAYA Biosciences Inc., priority 2021, published 2024)

Target: T1, Pol theta (1-899) (Homo sapiens, UniProt O75417)
T1 construct: Pol theta (1-899) (5 nM) in assay buffer
Experiment: Pol theta ATPase activity, NADH oxidation-coupled enzymatic assay (ATPase NADH coupling: Standard Screening: hPolQ)
Format: biochemical
Settings: Table 5; Pol theta (1-899) 5 nM, ATP, dT50 ssDNA
Protocol: The ability of the compounds of Formula (I) or Table 1 to inhibit ATPase activity of Pol theta (1-899) was determined using the assay described below. Pol Theta ATPase activity was determined by measuring the rate of ATP turn over in a NADH oxidation-coupled enzymatic assay. 10-point dilution series of compounds were used in a 384 well format for the inhibition assays. Pol theta (1-899) (5 nM) in assay buffer (20 mM Tris HCl (pH 7.80), 80 mM KCl, 10 mM MgCl2, 1 mM DTT, 0.01% BSA, 0.01% Tween, 5% glycerol) was transferred to the test wells (20 μL), except the low control wells (20 μL of assay buffer was added to the low control wells). The plate was then incubated at room temperature for 15 min. An equal volume (20 μL) of 100 μM ATP, 300 nM […] (single-stranded DNA (ssDNA) containing 50 thymine bases), 300 μM NADH, 6 mM PEP, 10 U/mL lactate dehydrogenase and 20 U/mL pyruvate kinase in assay buffer was added to all the test wells. The plate was then centrifuged at 1000 rpm for 1 min. The reaction was monitored for 60 min by measuring absorbance (λ=340 nm) in a Tecan Spark multimode plate reader every minute. The high control (DMSO with enzyme) with low absorbance intensity represents no inhibition of ATPase reaction while the low control (DMSO with buffer) with high absorbance intensity represents full inhibition of ATPase activity. Slope of the reaction progress curves were used to calculate the rate of ATP hydrolysis. The rates were used to determine the percent inhibition using a four-parameter inhibition model to generate IC50, Hill slope and max inhibition.

T1 sequence (O75417 1-899): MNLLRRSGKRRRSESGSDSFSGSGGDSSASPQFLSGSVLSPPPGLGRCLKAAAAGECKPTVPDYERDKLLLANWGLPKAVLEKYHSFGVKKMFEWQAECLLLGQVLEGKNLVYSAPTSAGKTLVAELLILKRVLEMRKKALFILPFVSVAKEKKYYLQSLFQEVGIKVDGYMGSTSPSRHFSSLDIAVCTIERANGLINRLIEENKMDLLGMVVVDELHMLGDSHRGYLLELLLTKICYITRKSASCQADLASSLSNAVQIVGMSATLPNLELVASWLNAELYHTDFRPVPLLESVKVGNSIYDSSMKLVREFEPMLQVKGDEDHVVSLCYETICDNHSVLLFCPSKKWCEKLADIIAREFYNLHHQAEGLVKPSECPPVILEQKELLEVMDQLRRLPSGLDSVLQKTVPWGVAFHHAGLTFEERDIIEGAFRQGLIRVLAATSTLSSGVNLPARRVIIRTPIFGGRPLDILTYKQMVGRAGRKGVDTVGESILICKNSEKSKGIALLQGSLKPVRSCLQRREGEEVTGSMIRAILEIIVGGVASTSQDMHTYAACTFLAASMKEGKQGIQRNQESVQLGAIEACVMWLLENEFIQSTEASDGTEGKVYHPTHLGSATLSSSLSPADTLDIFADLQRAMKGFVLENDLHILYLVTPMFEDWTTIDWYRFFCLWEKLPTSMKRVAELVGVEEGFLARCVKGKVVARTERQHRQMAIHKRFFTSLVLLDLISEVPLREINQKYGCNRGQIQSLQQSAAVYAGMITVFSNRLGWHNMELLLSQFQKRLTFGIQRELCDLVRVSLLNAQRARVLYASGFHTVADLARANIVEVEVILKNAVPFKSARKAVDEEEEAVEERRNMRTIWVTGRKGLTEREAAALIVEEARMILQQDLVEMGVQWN

Structure (SMILES) | IC50
COc1cnc(Cl)c(F)c1-c1cc(C)ncc1C(=O)Nc1nnc(O[C@H]2CCC[C@H](O)C2)s1 (single isomer, unassigned) [Example 156] | ≤ 200 nM
COc1cnc(Cl)c(F)c1-c1cc(C)ncc1C(=O)Nc1nnc(O[C@@H]2CCC[C@@H](O)C2)s1 (single isomer, unassigned) [Example 157] | ≤ 200 nM
COc1cnc(Cl)cc1-c1cc(C)ncc1C(=O)Nc1nnc(O[C@H]2CCC[C@@H](O)C2)s1 (single isomer, unassigned) [Example 159] | ≤ 200 nM
COc1cnc(Cl)cc1-c1cc(C)ncc1C(=O)Nc1nnc(O[C@@H]2CCC[C@H](O)C2)s1 (single isomer, unassigned) [Example 160] | ≤ 200 nM
COc1cnc(Cl)cc1-c1cc(C)ncc1C(=O)Nc1nnc(O[C@H]2CCC[C@H](O)C2)s1 (single isomer, unassigned) [Example 161] | ≤ 200 nM
COc1cnc(Cl)cc1-c1cc(C)ncc1C(=O)Nc1nnc(O[C@@H]2CCC[C@@H](O)C2)s1 (single isomer, unassigned) [Example 162] | ≤ 200 nM
COc1cnc(Cl)c(F)c1-c1cc(C)ncc1C(=O)Nc1nnc(O[C@H]2CCO[C@H]2C)s1 (single isomer, unassigned) [Example 164] | ≤ 200 nM
COc1cnc(Cl)c(F)c1-c1cc(C)ncc1C(=O)Nc1nnc(O[C@H]2CCO[C@@H]2C)s1 (single isomer, unassigned) [Example 165] | ≤ 200 nM
COc1cnc(Cl)c(F)c1-c1cc(C)ncc1C(=O)Nc1nnc(O[C@@H]2CCO[C@@H]2C)s1 (single isomer, unassigned) [Example 166] | ≤ 200 nM
COc1cnc(Cl)c(F)c1-c1cc(C)ncc1C(=O)Nc1nnc(O[C@@H]2CCO[C@H]2C)s1 (single isomer, unassigned) [Example 167] | ≤ 200 nM
COc1cnc(Cl)c(F)c1-c1cc(C)ncc1C(=O)Nc1nnc(O[C@H]2CC[C@@](C)(O)CC2)s1 (single isomer, unassigned) [Example 171, 2′-chloro-3′-fluoro-N-(5-(((1s,4s)-4-hydroxy-4-methylcyclohexyl)oxy)-1,3,4-thiadiazol-2-yl)-5′-methoxy-6-methyl-(4,4′-bipyridine)-3-carboxamide] | ≤ 200 nM
COc1cnc(Cl)c(F)c1-c1cc(C)ncc1C(=O)Nc1nnc(O[C@H]2CC[C@](C)(O)CC2)s1 (single isomer, unassigned) [Example 172, 2′-chloro-3′-fluoro-N-(5-(((1r,4r)-4-hydroxy-4-methylcyclohexyl)oxy)-1,3,4-thiadiazol-2-yl)-5′-methoxy-6-methyl-(4,4′-bipyridine)-3-carboxamide] | ≤ 200 nM
COc1cnc(Cl)cc1-c1cc(C)ncc1C(=O)Nc1nnc(OC2CCC3(CCCO3)CC2)s1 (single isomer, unassigned) [Example 173, N-(5-(((5s,8r)-1-oxaspiro(4.5)decan-8-yl)oxy)-1,3,4-thiadiazol-2-yl)-2′-chloro-5′-methoxy-6-methyl-(4,4′-bipyridine)-3-carboxamide] | ≤ 200 nM
COc1cnc(Cl)cc1-c1cc(C)ncc1C(=O)Nc1nnc(OC2CCC3(CCCO3)CC2)s1 (single isomer, unassigned) [Example 174, N-(5-(((5r,8s)-1-oxaspiro(4.5)decan-8-yl)oxy)-1,3,4-thiadiazol-2-yl)-2′-chloro-5′-methoxy-6-methyl-(4,4′-bipyridine)-3-carboxamide] | ≤ 200 nM
COc1cnc(Cl)cc1-c1cc(C)ncc1C(=O)Nc1nnc(O[C@H]2CCC[C@@](C)(O)C2)s1 (single isomer, unassigned) [Example 179] | ≤ 200 nM
COc1cnc(Cl)cc1-c1cc(C)ncc1C(=O)Nc1nnc(O[C@@H]2CCC[C@](C)(O)C2)s1 (single isomer, unassigned) [Example 180] | 200 to 500 nM
COc1cnc(Cl)cc1-c1cc(C)ncc1C(=O)Nc1nnc(O[C@H]2CCC[C@](C)(O)C2)s1 (single isomer, unassigned) [Example 181] | ≤ 200 nM
COc1cnc(Cl)cc1-c1cc(C)ncc1C(=O)Nc1nnc(O[C@@H]2CCC[C@@](C)(O)C2)s1 (single isomer, unassigned) [Example 182] | ≤ 200 nM
COc1cnc(Cl)cc1-c1cc(C)ncc1C(=O)Nc1nnc(O[C@H]2C[C@@H](O)C2(C)C)s1 (single isomer, unassigned) [Example 183, 2′-chloro-N-(5-((1r,3s)-3-hydroxy-2,2-dimethylcyclobutoxy)-1,3,4-thiadiazol-2-yl)-5′-methoxy-6-methyl-(4,4′-bipyridine)-3-carboxamide] | ≤ 200 nM
COc1cnc(Cl)cc1-c1cc(C)ncc1C(=O)Nc1nnc(O[C@H]2C[C@H](O)C2(C)C)s1 (single isomer, unassigned) [Example 184, 2′-chloro-N-(5-((1r,3r)-3-hydroxy-2,2-dimethylcyclobutoxy)-1,3,4-thiadiazol-2-yl)-5′-methoxy-6-methyl-(4,4′-bipyridine)-3-carboxamide] | ≤ 200 nM

Structure (SMILES) | IC50
COc1cnc(Cl)cc1-c1cc(C)ncc1C(=O)Nc1nnc(O[C@H]2CC[C@]3(CCO3)CC2)s1 (single isomer, unassigned) [Example 185, N-(5-(((4s, 7s)-1-oxaspiro(3.5)nonan-7-yl)oxy)-1,3,4-thiadiazol-2-yl)-2′-chloro-5′-methoxy-6-methyl-(4,4′-bipyridine)-3-carboxamide] | ≤ 200 nM
COc1cnc(Cl)cc1-c1cc(C)ncc1C(=O)Nc1nnc(O[C@H]2CC[C@@]3(CCO3)CC2)s1 (single isomer, unassigned) [Example 186, N-(5-(((4r,7r)-1-oxaspiro(3.5)nonan-7-yl)oxy)-1,3,4-thiadiazol-2-yl)-2′-chloro-5′-methoxy-6-methyl-(4,4′-bipyridine)-3-carboxamide] | ≤ 200 nM
COc1cnc(Cl)cc1-c1cc(C)ncc1C(=O)Nc1nnc(O[C@@H]2CO[C@H](C)C2)s1 (single isomer, unassigned) [Example 189] | ≤ 200 nM
COc1cnc(Cl)cc1-c1cc(C)ncc1C(=O)Nc1nnc(O[C@@H]2CO[C@@H](C)C2)s1 (single isomer, unassigned) [Example 190] | ≤ 200 nM
COc1cnc(Cl)cc1-c1cc(C)ncc1C(=O)Nc1nnc(O[C@H]2CO[C@@H](C)C2)s1 (single isomer, unassigned) [Example 191] | ≤ 200 nM
COc1cnc(Cl)cc1-c1cc(C)ncc1C(=O)Nc1nnc(O[C@H]2CO[C@H](C)C2)s1 (single isomer, unassigned) [Example 192] | ≤ 200 nM
COc1cnc(Cl)c(F)c1-c1cc(C)ncc1C(=O)Nc1nnc(O[C@H]2CC[C@H](O)C2)s1 (single isomer, unassigned) [Example 197] | ≤ 200 nM
COc1cnc(Cl)c(F)c1-c1cc(C)ncc1C(=O)Nc1nnc(O[C@@H]2CC[C@@H](O)C2)s1 (single isomer, unassigned) [Example 198] | ≤ 200 nM
COc1cnc(Cl)cc1-c1cc(C)ncc1C(=O)Nc1nnc(O[C@H]2CC[C@H]([C@@H](C)O)CC2)s1 (single isomer, unassigned) [Example 199] | ≤ 200 nM
COc1cnc(Cl)cc1-c1cc(C)ncc1C(=O)Nc1nnc(O[C@H]2CC[C@H]([C@H](C)O)CC2)s1 (single isomer, unassigned) [Example 200] | ≤ 200 nM
COc1cnc(C)c(F)c1-c1cc(C)ncc1C(=O)Nc1nnc(O[C@@H]2COC3(CC3)C2)s1 (single isomer, unassigned) [Example 207] | ≤ 200 nM
COc1cnc(C)c(F)c1-c1cc(C)ncc1C(=O)Nc1nnc(O[C@H]2COC3(CC3)C2)s1 (single isomer, unassigned) [Example 208] | ≤ 200 nM
COc1cnc(Cl)c(F)c1-c1cc(C)ncc1C(=O)Nc1nnc(O[C@@H]2COC3(CC3)C2)s1 (single isomer, unassigned) [Example 209] | ≤ 200 nM
COc1cnc(Cl)c(F)c1-c1cc(C)ncc1C(=O)Nc1nnc(O[C@H]2COC3(CC3)C2)s1 (single isomer, unassigned) [Example 210] | ≤ 200 nM
COc1cnc(Cl)cc1-c1cc(C)ncc1C(=O)Nc1nnc(O[C@H]2CC[C@@H]([C@@H](C)O)CC2)s1 (single isomer, unassigned) [Example 212] | ≤ 200 nM
COc1cnc(Cl)cc1-c1cc(C)ncc1C(=O)Nc1nnc(O[C@H]2CC[C@@H]([C@H](C)O)CC2)s1 (single isomer, unassigned) [Example 213] | ≤ 200 nM
COc1cnc(Cl)cc1-c1cc(C)ncc1C(=O)Nc1nnc(O[C@@H]2C[C@H]3CC[C@@H]2O3)s1 (single isomer, unassigned) [Example 216] | ≤ 200 nM
COc1cnc(Cl)cc1-c1cc(C)ncc1C(=O)Nc1nnc(O[C@H]2C[C@@H]3CC[C@H]2O3)s1 (single isomer, unassigned) [Example 217] | ≤ 200 nM
COc1cnc(C)c(F)c1-c1cc(C)ncc1C(=O)Nc1nnc(O[C@@H]2C[C@H]3CC[C@@H]2O3)s1 (single isomer, unassigned) [Example 218] | ≤ 200 nM
COc1cnc(C)c(F)c1-c1cc(C)ncc1C(=O)Nc1nnc(O[C@H]2C[C@@H]3CC[C@H]2O3)s1 (single isomer, unassigned) [Example 219] | ≤ 200 nM
